Non-standard residues stand in square brackets, D forms with d. Residues, ends and D or L forms follow the SMILES beside them. No end group written: not given here. hArg = N=C(N)NCCCC[C@H](N)C(=O)O; dNle = CCCC[C@@H](N)C(=O)O
Target: T1, hNMUR1 (Homo sapiens, UniProt Q9HB89)
T1 sequence (Q9HB89 1-426): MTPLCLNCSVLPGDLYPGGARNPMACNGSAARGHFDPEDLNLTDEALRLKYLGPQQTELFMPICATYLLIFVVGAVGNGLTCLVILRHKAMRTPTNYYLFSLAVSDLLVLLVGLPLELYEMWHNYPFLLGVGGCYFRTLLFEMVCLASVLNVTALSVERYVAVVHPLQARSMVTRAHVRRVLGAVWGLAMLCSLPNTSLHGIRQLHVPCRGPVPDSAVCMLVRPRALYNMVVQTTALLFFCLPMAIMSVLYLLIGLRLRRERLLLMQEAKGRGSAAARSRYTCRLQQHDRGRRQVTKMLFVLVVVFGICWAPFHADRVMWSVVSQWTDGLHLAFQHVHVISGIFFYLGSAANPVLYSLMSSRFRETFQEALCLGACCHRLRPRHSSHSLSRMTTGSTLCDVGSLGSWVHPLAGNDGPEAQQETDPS
Experiment: In vitro functional assay, HEK-hR1 cells
Type: cell-based
Parameters: expressed in transfected cells; host or cells: FLP-In CHO or HEK-293 FLP-In cells (pcDNA5); HEK-293/aeq17 lines (pIRES-puro) were also made
From the text: Human, mouse or rat cDNAs encoding NMUR1 or NMUR2 (as described in Howard et al. Nature 406: 70-74 (2000) were subcloned in pcDNA5 (Invitrogen) and transfected into FLP-In CHO cells and HEK-293 FLP-In cells purchased from Invitrogen (Carlsbad, Calif.) using lipofectamine (Invitrogen). The Flp-In system allows integration and expression of a particular gene of interest at a specific genomic location utilizing the Flp recombinase from yeast. The transfected cells were selected by growth in medium containing 200 μg/mL hygromycin (Invitrogen). Populations were frozen at early passage numbers, and these stocks were used for further studies. Stable clones that expressed the mRNAs were identified functionally by FLIPR as well as by RT-PCR. […] Two different rodent NMUR1 cell lines were thus generated: one with the codon as predicted from the genomic databases and another cell line with an engineered methionine (ATG) as the start codon. Additionally, stable cell lines expressing the human receptors were generated in HEK-293/aeq17 cells which stably express the aequorin gene under the CMV promoter. The human NMUR2 cDNA was cloned into pcDNA3.1 and human NMUR1 was subcloned into pIRES-puro (Clontech, Mountain View, Calif.), after transfection cells were selected in media containing G418 and either hygromycin (NMUR2) or puromycin (NMUR1).
The NMU receptors signal primarily through Gαq/11 proteins; therefore calcium mobilization assays can be utilized for functional activity.
Stable cell lines expressing human and or rodent NMUR1 or human NMUR2 receptors were plated at a density of 12,000 cells per well overnight on poly-lysine coated 384-well black-walled plates. The following day, the media was removed from the plates and the cells were subsequently loaded with Fluo-3 (Molecular Probes), a calcium sensitive dye, diluted in FLIPR buffer (1× Hank's buffered saline containing 20 mM HEPES, 0.1% BSA, 2.5 mM probenecid (Sigma) and 1.6 mM TR40). All reagents are from Invitrogen unless otherwise noted. Peptide stocks were resuspended in DMSO at a stock concentration of 2 mM and diluted in FLIPR buffer on the day of the experiment to a 4 μM working stock solution.
After a 90 minute incubation at room-temperature, cell plates were loaded onto a FLIPR (Molecular Devices) to monitor cellular fluorescence (excitation=488 nm; emission=540 nm) before and after compound/peptide addition. Eight to twelve point dose responses were tested on NMUR-expressing cell lines using FLIPR with 1 μM peptide as the highest dose. The response after peptide addition was taken as the maximum fluorescence units minus the fluorescence immediately prior to stimulation for each well. EC50 values were calculated using GraphPad Prism (San Diego, Calif.) software.
In addition to FLIPR, NMU receptor function can also be evaluated using an aequorin assay. Stable cell lines expressing the aequorin jelly fish gene can be used to report the activation of GPCRs by monitoring intracellular calcium mobilization. The objective is to identify compounds which specifically stimulate aequorin bioluminescence. Calcium-dependent luminescence is generated by the treatment of cells with the coelenterate luciferin, coelenterazine. Briefly, confluent monolayers of HEK-293/aeq 17 cells expressing hNMUR1 or hNMUR2 are “charged” with coelenterazine (Molecular Probes, Carlsbad, Calif.). Confluent T75 flasks are rinsed with media containing 300 μM glutathione and 0.1% FBS. Cells are incubated at 37° C. for one hour in 8 mL media, 0.1% FBS, 300 μM glutathione, and 20 μM coelenterazine. T75 flasks are subsequently rinsed with 6 mL ECB buffer (140 mM NaCl, 20 mM KCl, 20 mM HEPES, 5 mM glucose, 1 mM MgCl, 1 mM CaCl2, 0.1 mg/mL BSA, PH 7.3-7.4). Cells are removed from the flask in ECB buffer, pelleted, and resuspended at a density of 2×10^5 cells/mL. Agonists are added to the cells and activity is determined using a luminometer. […]

| Molecule | % Activity (Table 8, HEK-hR1, functional) | IC50 (Table 8, HEK-hR1, functional) | % Activity (Table 9, HEK-hR1, functional) | EC50 (Table 9, HEK-hR1, functional) |
| --- | --- | --- | --- | --- |
| H-YFGWRPRN-NH2 [Agonist C] | 87% | 1.1 nM | – | – |
| C[C@@H](NC(=O)[C@H](Cc1ccccc1)NC(=O)[C@@H](N)Cc1ccc(O)cc1)C(=O)N[C@@H](Cc1c[nH]c2ccccc12)C(=O)N[C@@H](CCCNC(=N)N)C(=O)N1CCC[C@H]1C(=O)N[C@@H](CCCNC(=N)N)C(=O)N[C@@H](CC(N)=O)C(N)=O [Agonist D, YF-(D-A)-WRPRN-CONH2] (H-YF[dA]WRPRN-NH2; N-terminus assumed) | 96% | – | – | – |
| CC(C)C[C@H](NC(=O)[C@H](Cc1c[nH]c2ccccc12)NC(=O)[C@@H](N)Cc1ccccc1)C(=O)N[C@@H](Cc1ccccc1)C(=O)N[C@@H](CCCNC(=N)N)C(=O)N1CCC[C@H]1C(=O)N[C@@H](CCCCNC(=N)N)C(=O)N[C@@H](CC(N)=O)C(N)=O [Agonist I, FWLFRP-(Harg)-N-CONH2] (H-FWLFRP[hArg]N-NH2) | – | – | 7% | > 1000 nM |
| CC(C)C[C@H](NC(=O)[C@H](Cc1c[nH]c2ccccc12)NC(=O)[C@H](Cc1ccccc1)NC(=O)CNC(=O)[C@H](CCCNC(=N)N)NC(=O)[C@H](CO)NC(=O)[C@H](CCC(N)=O)NC(=O)[C@H](CO)NC(=O)[C@H](C)NC(=O)[C@H](Cc1ccccc1)NC(=O)[C@@H]1CCCN1C(=O)[C@H](CO)NC(=O)[C@H](CCC(N)=O)NC(=O)[C@H](Cc1ccccc1)NC(=O)[C@H](CCC(=O)O)NC(=O)[C@H](CCC(=O)O)NC(=O)[C@H](CC(=O)O)NC(=O)[C@@H](NC(=O)[C@H](CCCNC(=N)N)NC(=O)[C@@H](N)Cc1ccccc1)C(C)C)C(=O)N[C@@H](Cc1ccccc1)C(=O)N[C@@H](CCCNC(=N)N)C(=O)N1CCC[C@H]1C(=O)N[C@@H](CCCCNC(=N)N)C(=O)N[C@@H](CC(N)=O)C(N)=O [Agonist O] (H-FRVDEEFQSPFASQSRGFWLFRP[hArg]N-NH2; N-terminus assumed) | – | – | 35% | 420 nM |
| CC(=O)N[C@@H](Cc1ccccc1)C(=O)N[C@H](CC(C)C)C(=O)N[C@@H](Cc1c[nH]c2ccccc12)C(=O)N[C@@H](CCCNC(=N)N)C(=O)N1CCC[C@H]1C(=O)N[C@@H](CCCNC(=N)N)C(=O)N[C@@H](CC(N)=O)C(N)=O [Agonist E, Ac-F-(D-L)-WRPRN-CONH2] (Ac-F[dL]WRPRN-NH2) | 100% | – | – | – |
| CC(C)C[C@H](NC(=O)[C@H](Cc1c[nH]c2ccccc12)NC(=O)[C@@H](N)Cc1ccccc1)C(=O)N[C@@H](Cc1ccccc1)C(=O)N[C@@H](CCCNC(=N)N)C(=O)N[C@@H](C)C(=O)N[C@@H](CCCCNC(=N)N)C(=O)N[C@@H](CC(N)=O)C(N)=O [Agonist J, FWLFRA-(Harg)-N-CONH2] (H-FWLFRA[hArg]N-NH2) | – | – | 0% | > 1000 nM |
| CCCC[C@@H](NC(=O)[C@H](CCCNC(=N)N)NC(=O)[C@H](C)NC(=O)[C@H](CCCNC(=N)N)NC(=O)[C@H](Cc1ccccc1)NC(=O)[C@H](CC(C)C)NC(=O)[C@H](Cc1ccccc1)NC(=O)[C@@H](N)Cc1c[nH]c2ccccc12)C(N)=O [Agonist K, WFLFRAR-(D-Nle)-CONH2] (H-WFLFRAR[dNle]-NH2) | – | – | 61% | 400 nM |
| H-FRVDEEFQSPFASQSRGYFWRPRN-NH2 [Agonist G] | 91% | – | – | – |
| CC(C)C[C@H](NC(=O)[C@H](Cc1c[nH]c2ccccc12)NC(=O)[C@H](Cc1ccccc1)NC(=O)CNC(=O)[C@H](CCCNC(=N)N)NC(=O)[C@H](CO)NC(=O)[C@H](CCC(N)=O)NC(=O)[C@H](CO)NC(=O)[C@H](C)NC(=O)[C@H](Cc1ccccc1)NC(=O)[C@@H]1CCCN1C(=O)[C@H](CO)NC(=O)[C@H](CCC(N)=O)NC(=O)[C@H](Cc1ccccc1)NC(=O)[C@H](CCC(=O)O)NC(=O)[C@H](CCC(=O)O)NC(=O)[C@H](CC(=O)O)NC(=O)[C@@H](NC(=O)[C@H](CCCNC(=N)N)NC(=O)[C@@H](N)Cc1ccccc1)C(C)C)C(=O)N[C@@H](Cc1ccccc1)C(=O)N[C@@H](CCCNC(=N)N)C(=O)N[C@@H](C)C(=O)N[C@@H](CCCCNC(=N)N)C(=O)N[C@@H](CC(N)=O)C(N)=O [Agonist P] (H-FRVDEEFQSPFASQSRGFWLFRA[hArg]N-NH2; N-terminus assumed) | – | – | 11% | – |
| YFWRPRN-NH2 [Agonist A, YFWRPRN-CONH2] | 92% | 2.7 nM | – | – |
| CCCC[C@@H](NC(=O)[C@H](CCCNC(=N)N)NC(=O)[C@@H]1CCCN1C(=O)[C@H](CCCNC(=N)N)NC(=O)[C@H](Cc1ccccc1)NC(=O)[C@H](CC(C)C)NC(=O)[C@H](Cc1c[nH]c2ccccc12)NC(=O)[C@H](Cc1ccccc1)NC(=O)CNC(=O)[C@H](CCCNC(=N)N)NC(=O)[C@H](CO)NC(=O)[C@H](CCC(N)=O)NC(=O)[C@H](CO)NC(=O)[C@H](C)NC(=O)[C@H](Cc1ccccc1)NC(=O)[C@@H]1CCCN1C(=O)[C@H](CO)NC(=O)[C@H](CCC(N)=O)NC(=O)[C@H](Cc1ccccc1)NC(=O)[C@H](CCC(=O)O)NC(=O)[C@H](CCC(=O)O)NC(=O)[C@H](CC(=O)O)NC(=O)[C@@H](NC(=O)[C@H](CCCNC(=N)N)NC(=O)[C@@H](N)Cc1ccccc1)C(C)C)C(N)=O [Agonist Q] (H-FRVDEEFQSPFASQSRGFWLFRPR[dNle]-NH2) | – | – | 0% | > 1000 nM |
| WALFRARN-NH2 [Agonist M] | – | – | 0% | > 1000 nM |
| CC(C)C[C@@H](NC(=O)[C@H](Cc1ccccc1)NC(=O)[C@@H](N)Cc1ccc(O)cc1)C(=O)N[C@@H](Cc1c[nH]c2ccccc12)C(=O)N[C@@H](CCCNC(=N)N)C(=O)N1CCC[C@H]1C(=O)N[C@@H](CCCNC(=N)N)C(=O)N[C@@H](CC(N)=O)C(N)=O [Agonist B, YF-(D-L)-WRPRN-CONH2] (H-YF[dL]WRPRN-NH2) | 103% | – | – | – |
| CC(C)C[C@H](NC(=O)[C@H](Cc1ccccc1)NC(=O)[C@@H](N)Cc1ccc(O)cc1)C(=O)N[C@@H](Cc1ccccc1)C(=O)N[C@@H](CCCNC(=N)N)C(=O)N1CCC[C@H]1C(=O)N[C@@H](CCCNC(=N)N)C(=O)N[C@@H](CC(N)=O)C(N)=O [NMU-8, reference compound] | – | – | 100% | – |
| H-FWLFRARN-NH2 [Agonist L] | – | – | 74% | > 1000 nM |
| Ac-FFRPRN-NH2 [Agonist F, Ac-FFRPRN-CONH2] | 96% | 42 nM | – | – |
| FALFRPRN-NH2 [Agonist N] | – | – | 87% | – |
